{"source": "paper PMC12811501", "about": "“A plant-derived antimicrobial peptide with multiple mechanisms of action exhibiting antibacterial and antibiofilm activities comparable to or superior to polymyxin B” (Current Research in Microbial Sciences, 2025)", "key": {"E. coli [1]": {"test_system": "E. coli", "assay": "Live/Dead staining (SYTO 9 / PI) of membrane integrity, confocal microscopy", "type": "cell-based, Escherichia coli", "details": "10 min", "method": "Microbial cell membrane integrity or damage was assayed with Live/Dead staining. E. coli were grown as for the antimicrobial activity assay and washed with PPB. […] Untreated cells served as negative control. Cells were subsequently stained with 5 μM SYTO 9 and 5 μM propidium iodide (PI). After a 10-minute incubation in the dark, 5 µl of each cell suspension was placed on a microscope slide, covered with thin 2 % (w/v) agar slices, and examined using an Olympus Fluoview FV1000 confocal laser microscope at × 60 magnification. For SYTO 9, excitation was at 488 nm and emission was collected between 500 and 530 nm; for PI, excitation was at 543 nm with emission detected between 555 and 655 nm. Sequential scanning was used to avoid crosstalk of the fluorescent dyes.\nNext, we investigated whether the application of NCR169C17–38 peptide affects membrane permeability of E. coli, and if so, to what extent and how rapidly these changes occur."}, "E. coli [2]": {"test_system": "E. coli", "assay": "Real-time PI uptake", "type": "cell-based, Escherichia coli", "method": "To monitor PI uptake in real time, 10 µl of E. coli suspension (OD₆₀₀ = 0.1, prepared as described above) was mixed with 90 µl of PPB containing a two-fold serial dilution of NCR169C17–38 (12.5 µM to 0.8 µM) or polymyxin B (0.8 µM), along with 200 ng/ml PI. Fluorescence was recorded using a Hidex Sense Microplate Reader (software version 5064) with excitation and emission wavelengths set at 535 nm and 617 nm, respectively. Experiments were repeated three times.\nTo get a more precise assessment of how rapidly NCR169C17–38 induces membrane damage, we monitored PI uptake in real time. E. coli was treated in a microtiter plate with two-fold dilutions of NCR169C17–38 (12.5 - 0.8 µM) and PI fluorescence was measured using a plate reader (Fig. 2.C). For comparison, polymyxin B, a well-known membrane-permeabilizing/damaging antibiotic, was included as a control. A rapid rise in fluorescence within 1–2 min was observed upon exposure to NCR169C17–38 at MBC or higher concentrations, indicating swift membrane permeabilization."}, "A. baumannii": {"test_system": "A. baumannii", "type": "cell-based, Acinetobacter baumannii", "details": "8 h", "method": "For serum stability test human blood was purchased from the Regional Blood Centre in Szeged (the use of human blood has been authorized by the Regional Hungarian Ethics Committee and approved by the Ethics Review Sector of DG RTD (European Commission) in connection with EK’s ERC AdG SymBiotics). The cells from 10 ml of EDTA-blood were centrifuged at 1500 × g for 1 min and washed several times in TBS buffer (10 mM Tris, pH: 7.2, 150 mM NaCl) until the supernatant, representing the serum, became colorless. The NCR169C17–38 peptide was added to the serum at 1:1 ratio and incubated at room temperature for 8 h. Subsequently, serial 2-fold dilutions of the peptide were prepared in PPB, with concentrations ranging from 100 to 0.2 µM and antimicrobial assay was done to determine the MBC values. Experiments were done in three biological replicates."}, "Candida species": {"test_system": "Candida species", "details": "ref Szerencsés et al., 2021; cited from earlier work", "text": "(§1) NCR169 is another NCR peptide essential for differentiation of nitrogen fixing bacteroids in Medicago species ([Horváth et al., 2015]). This 38-amino-acid peptide contains four cysteines that are critical for its symbiotic function in planta."}, "Cryptococcus neoformans": {"test_system": "Cryptococcus neoformans", "details": "ref Szerencsés et al., 2025; cited from earlier work", "text": "as §1"}, "[3]": {"test_system": "mouse macrophage J774.2 cells", "details": "cited from earlier work"}}, "note": "Residues, ends and D or L forms follow the SMILES beside them."}
{"compound": "CC[C@H](C)[C@H](NC(=O)[C@H](CCCCN)NC(=O)[C@H](Cc1ccccc1)NC(=O)[C@H](CC(C)C)NC(=O)[C@@H]1CCCN1C(=O)[C@H](CCCCN)NC(=O)[C@H](CCCCN)NC(=O)[C@H](CO)NC(=O)[C@@H](N)CCCCN)C(=O)N[C@@H](Cc1c[nH]c2ccccc12)C(=O)N[C@@H](CCCCN)C(=O)N[C@@H](CS)C(=O)N[C@H](C(=O)N[C@@H](CCC(=O)O)C(=O)N[C@@H](CC(N)=O)C(=O)N[C@H](C(=O)N[C@@H](CS)C(=O)N[C@H](C(=O)N[C@@H](CC(C)C)C(=O)N[C@@H](Cc1c[nH]c2ccccc12)C(=O)N[C@@H](Cc1ccc(O)cc1)C(=O)N[C@@H](CCCCN)C(N)=O)C(C)C)C(C)C)C(C)C", "note": "[NCR169C17–38] (H-KSKKPLFKIWKCVENVCVLWYK-NH2; N-terminus assumed)", "values": [{"measurement": "membrane integrity, SYTO 9 / PI staining", "setting": "E. coli [1]; 0.8 µM peptide", "value": "predominantly red-stained cells"}, {"measurement": "membrane integrity, SYTO 9 / PI staining", "setting": "E. coli [1]; 1.6 µM peptide", "value": "all cells appeared red"}, {"measurement": "time to rapid rise in PI fluorescence", "setting": "E. coli [2]; E. coli in PPB, peptide at MBC or higher concentrations (12.5-0.8 µM tested), 200 ng/ml PI", "value": "1 to 2", "unit": "min"}, {"measurement": "PI uptake kinetics compared at respective MBC values", "setting": "E. coli [2]; E. coli, polymyxin B 0.8 µM as control", "value": "more rapidly and effectively than polymyxin B"}, {"measurement": "MBC after pre-incubation in human serum", "setting": "A. baumannii", "value": 6.3, "unit": "µM"}, {"measurement": "antifungal activity", "setting": "Candida species", "value": "potent antifungal activity"}, {"measurement": "antifungal activity", "setting": "Cryptococcus neoformans", "value": "potent antifungal activity"}, {"measurement": "cytotoxicity", "setting": "[3]", "value": "non-cytotoxic"}]}
